Legend:
[1] = tested on: B16-GMCSF melanoma; test: B16-GMCSF melanoma model; format: in vivo, mouse; settings: intradermal implants, C57BL/6 mice, 3 mg/kg oral daily, day 19, vs vehicle, n=5
[2] = tested on: human iPSC-DCs; test: Activation of human iPSC-derived DCs by flow cytometry; format: cell-based; settings: vitamin E 50 μg/ml or TPI-1 1 μg/ml, 72 h, gated on CD11c+
Description: FIG. 10A: Representative high magnification photomicrographs (100×, 200×, 400×) illustrating the morphology of colonies and individual cells of fully differentiated iPSC-derived DCs (iPSC-DCs) displaying characteristic DC morphology consisting of protrusions and veils of cytoplasm at the end of the differentiation procedure (day 23) after using the differentiation protocol for the addition and withdrawal of growth factors and cytokines. FIG. 10B: Phenotypic characterization of generated human iPSC-DCs. Representative flow cytometry analysis depicting the expression of DC lineage markers by iPSC-DCs gated on the CD11c+ population. Levels of expression of individual markers are shown as red histograms, while non-specific staining by isotype controls is shown as light blue histograms. FIG. 10C: Phenotypic characterization of human iPSC-DCs after treatment with vitamin E or TPI-1 to inhibit SHP1. Representative flow cytometry analysis (left panel) and quantification (right panel) depicting the expression of indicated activity markers by iPSC-DCs gated on the CD11c+population with the treatment of vehicle, vitamin E (50 μg/ml) or TPI-1 (1 μg/ml) for 72 h.
We explored the feasibility of differentiating populations of primary DCs from iPSCs and characterized the phenotype of iPSC-DC with the pharmacological inhibition of SHP1 by vitamin E or TPI-1. […]

O=C1C=CC(=O)C(c2cc(Cl)ccc2Cl)=C1 [TPI-1, 2-(2,5-dichlorophenyl)-2,5-cyclohexadiene-1,4-dione]
mean tumor volume [1]: significantly smaller tumor volume | expression of DC activation markers on iPSC-DCs [2]: increased expression of DC activation markers CD40 and CD86

From patent US20240424019A1, “SHP1 MODIFIED DENDRITIC CELLS AND EXTRACELLULAR VESICLES DERIVED THEREFROM AND ASSOCIATED METHODS” (BOARD OF REGENTS, THE UNIVERSITY OF TEXAS SYSTEM, priority 2021, published 2024)
